Measurements as given in article PMC9658817, “Design, Synthesis, and Mechanistic Study of 2-Pyridone-Bearing Phenylalanine Derivatives as Novel HIV Capsid Modulators” (Molecules, 2022).
In brackets after ≈: the same amount, converted by molar mass. Like-named read-outs stand apart in the source and are kept apart here.

Legend:
[1] = test system: HIV-1 IIIB; test: Anti-HIV-1 activity in MT-4 cells (MTT assay); format: cell-based; details: Human immunodeficiency virus 1, IIIB, MT4, 120 h, read-out: EC50 HIV-1 IIIB
Protocol: (§1) The antiviral activities and cytotoxicities of the target compounds were tested using MT-4 cells infected by HIV-1 IIIB or HIV-2 ROD. […] PF74 was utilized as the control drug in this assay.

[2] = test system: HIV-2 ROD; test: Anti-HIV-2 activity in MT-4 cells (MTT assay); format: cell-based; details: Human immunodeficiency virus 2, MT4, 120 h, read-out: EC50 HIV-2 ROD
Protocol: as §1

[3] = test system: MT-4 cells; test: Cytotoxicity in mock-infected MT-4 cells (MTT assay); format: cell-based; details: uninfected (mock-infected) MT-4 cells, viability reduced by 50%
Protocol: as §1

[4] = as above; format: cell-based; details: human, mock-infected (uninfected) MT-4 cells, uninfected (mock-infected) MT-4 cells, viability reduced by 50%
Protocol: as §1

[5] = Water solubility assay in phosphate buffer (HPLC); format: physicochemical; details: for solubility: aqueous buffer, thermodynamic from solid, HPLC; for water solubility compared with PF74: in words, relative to PF74
Protocol: To test the changes in water solubility when two more amides or its mimics were introduced to the target compounds, which may lower the solubility of the target compounds, we performed water solubility assays (Table 2). […] Therefore, we cannot calculate its water solubility. It was illustrated that the solubility of compounds varied greatly under different pH. […] We weighed about 1mg of the compound, dissolved it with 1ml of methanol, and diluted it in gradient (twice each time) to obtain 10 concentrations. The peak area of the compound was tested by HPLC, and the peak area- concentration standard curve was drawn. In addition, about 1 mg, 0.6 mg and 0.3 mg of the compound were weighed and dissolved in 1 mL of pH 2, pH 7 and pH 7.4 phosphate buffer to obtain the saturated solution of the compound. HPLC was used to test the peak area under different pH, and the water solubility of the compound was obtained through the standard curve.

[6] = test system: HIV; parameters: method as in PMID 32612233; details: MT-4 cells; read-out: EC50 antiviral activity; cited from earlier work
[7] = MT-4 cells, 50% protection against HIV-induced cytopathic effect, MTT, five days after infection
[8] = phosphate buffer pH 2, saturated solution, read-out: Solubility pH 2
[9] = phosphate buffer pH 7, saturated solution, read-out: Solubility pH 7
[10] = phosphate buffer pH 7.4, saturated solution, read-out: Solubility pH 7.4

For `COc1ccc(N(C)C(=O)[C@H](Cc2ccccc2)NC(=O)Cn2ccc(NC(=O)c3ccc([N+](=O)[O-])cc3)cc2=O)cc1` [TD-1l, (S)-N-(1-(2-((1-((4-methoxyphenyl)(methyl)amino)-1-oxo-3-phenylpropan-2-yl)amino)-2-oxoethyl)-2-oxo-1,2-dihydropyridin-4-yl)-4-nitrobenzamide], the EC50 [1, 7] was > 31.9 µM, the EC50 [2, 7] was > 31.9 µM and the CC50 [3] was 31.9 ± 1.73 µM.

`COc1ccc(N(C)C(=O)[C@H](Cc2ccccc2)NC(=O)Cn2ccc(N)cc2=O)cc1` [TC-2, (S)-2-(2-(4-amino-2-oxopyridin-1(2H)-yl)acetamido)-N-(4-methoxyphenyl)-N-methyl-3-phenylpropanamide] showed an EC50 [1, 7] of 29.1 ± 4.23 µM, an EC50 [2, 7] of 19.7 ± 6.42 µM and a CC50 [3] of 261 ± 33.1 µM.

With `COc1ccc(N(C)C(=O)[C@H](Cc2ccccc2)NC(=O)Cn2ccc(NC(=O)c3ccc(Cl)cc3)cc2=O)cc1` [TD-1e, (S)-4-chloro-N-(1-(2-((1-((4-methoxyphenyl)(methyl)amino)-1-oxo-3-phenylpropan-2-yl)amino)-2-oxoethyl)-2-oxo-1,2-dihydropyridin-4-yl)benzamide] the EC50 [1, 7] was > 25.5 µM, the EC50 [2, 7] was > 25.5 µM and the CC50 [3] was 25.5 ± 2.9 µM.

With `Cc1[nH]c2ccccc2c1CC(=O)NC(Cc1ccccc1)C(=O)N(C)c1ccccc1` (stereo not drawn) [PF74, reference compound] the EC50 [1] was 1.08 ± 0.24 µM, the EC50 [2] was 5.76 ± 2.14 µM and the CC50 at 5 days [4] was > 294 µM. For the same compound, the solubility [5, 8] was < 1.12 µg/mL, the solubility [5, 9] was 1.44 ± 0.1 µg/mL (≈ 3.38 µM) and the solubility [5, 10] was 1.91 ± 0.56 µg/mL (≈ 4.49 µM).

For `COC(=O)c1ccc(C(=O)Nc2ccn(CC(=O)N[C@@H](Cc3ccccc3)C(=O)N(C)c3ccc(OC)cc3)c(=O)c2)cc1` [TD-1i, methyl (S)-4-((1-(2-((1-((4-methoxyphenyl)(methyl)amino)-1-oxo-3-phenylpropan-2-yl)amino)-2-oxoethyl)-2-oxo-1,2-dihydropyridin-4-yl)carbamoyl)benzoate], the EC50 [1, 7] was 19.1 ± 5.08 µM, the EC50 [2, 7] was 15.2 ± 0.55 µM and the CC50 [3] was 96.2 ± 19.8 µM.

In the case of `COc1ccc(N(C)C(=O)[C@H](Cc2ccccc2)NC(=O)Cn2ccc(NC(=O)c3ccc(N)cc3)cc2=O)cc1` [TD-1m, (S)-4-amino-N-(1-(2-((1-((4-methoxyphenyl)(methyl)amino)-1-oxo-3-phenylpropan-2-yl)amino)-2-oxoethyl)-2-oxo-1,2-dihydropyridin-4-yl)benzamide], the EC50 [1, 7] is reported as > 189 µM, the EC50 [2, 7] is reported as 17.1 ± 2.49 µM and the CC50 [3] is reported as 189 ± 2.19 µM.

In the case of `COc1ccc(C(=O)Nc2ccn(CC(=O)N[C@@H](Cc3ccccc3)C(=O)N(C)c3ccc(OC)cc3)c(=O)c2)cc1` [TD-1h, (S)-4-methoxy-N-(1-(2-((1-((4-methoxyphenyl)(methyl)amino)-1-oxo-3-phenylpropan-2-yl)amino)-2-oxoethyl)-2-oxo-1,2-dihydropyridin-4-yl)benzamide], the EC50 [1, 7] is reported as 29.6 ± 4.34 µM, the EC50 [2, 7] is reported as 10.7 ± 3.66 µM and the CC50 [3] is reported as 53.1 ± 5.12 µM.

For `COc1ccc(N(C)C(=O)[C@H](Cc2ccccc2)NC(=O)Cn2ccc(NC(=O)c3ccc4ccccc4c3)cc2=O)cc1` [TD-1k, (S)-N-(1-(2-((1-((4-methoxyphenyl)(methyl)amino)-1-oxo-3-phenylpropan-2-yl)amino)-2-oxoethyl)-2-oxo-1,2-dihydropyridin-4-yl)-2-naphthamide], the EC50 [1, 7] was > 27.6 µM, the EC50 [2, 7] was > 27.6 µM and the CC50 [3] was 27.6 ± 3.18 µM.

Compound `COc1ccc(N(C)C(=O)[C@H](Cc2ccccc2)NC(=O)Cn2ccc(NC(=O)c3ccccc3)cc2=O)cc1` [TD-1a, (S)-N-(1-(2-((1-((4-methoxyphenyl)(methyl)amino)-1-oxo-3-phenylpropan-2-yl)amino)-2-oxoethyl)-2-oxo-1,2-dihydropyridin-4-yl)benzamide] has an EC50 [1, 7] of 16.8 ± 0.91 µM, an EC50 [2, 7] of 4.86 ± 1.71 µM and a CC50 [3] of 86.5 ± 29.2 µM. For the same compound, the solubility [5, 8] was 2.69 ± 0.52 µg/mL (≈ 4.99 µM), the solubility [5, 9] was 5.07 ± 2.6 µg/mL (≈ 9.41 µM) and the solubility [5, 10] was 8.66 ± 0.41 µg/mL (≈ 16.1 µM). The “water solubility compared with PF74” value [5] was “moderately increased”.

Compound `COc1ccc(N(C)C(=O)[C@H](Cc2ccccc2)NC(=O)Cn2ccc(NC(=O)c3cccc(F)c3)cc2=O)cc1` [TD-1c, (S)-3-fluoro-N-(1-(2-((1-((4-methoxyphenyl)(methyl)amino)-1-oxo-3-phenylpropan-2-yl)amino)-2-oxoethyl)-2-oxo-1,2-dihydropyridin-4-yl)benzamide] has an EC50 [1, 7] of 18.9 ± 2.66 µM, an EC50 [2, 7] of 6.59 ± 1.63 µM and a CC50 [3] of 61.6 ± 8.44 µM.

For `CC(C)(C#Cc1ccc(-c2ccc(Cl)c3c(NS(C)(=O)=O)nn(CC(F)(F)F)c23)c([C@H](Cc2cc(F)cc(F)c2)NC(=O)Cn2nc(C(F)(F)F)c3c2C(F)(F)[C@@H]2C[C@H]32)n1)S(C)(=O)=O` [GS-6207], the EC50 [6] is given as 0.000105 µM.

For `COc1ccc(N(C)C(=O)[C@H](Cc2ccccc2)NC(=O)Cn2ccc(NC(=O)c3ccccc3F)cc2=O)cc1` [TD-1d, (S)-2-fluoro-N-(1-(2-((1-((4-methoxyphenyl)(methyl)amino)-1-oxo-3-phenylpropan-2-yl)amino)-2-oxoethyl)-2-oxo-1,2-dihydropyridin-4-yl)benzamide], the EC50 [1, 7] was 17.9 ± 2.68 µM, the EC50 [2, 7] was 7.92 ± 0.83 µM and the CC50 [3] was 81.4 ± 22.7 µM.

In the case of `COc1ccc(N(C)C(=O)[C@H](Cc2ccccc2)NC(=O)Cn2ccc(NC(=O)c3ccc(C#N)cc3)cc2=O)cc1` [TD-1j, (S)-4-cyano-N-(1-(2-((1-((4-methoxyphenyl)(methyl)amino)-1-oxo-3-phenylpropan-2-yl)amino)-2-oxoethyl)-2-oxo-1,2-dihydropyridin-4-yl)benzamide], the EC50 [1, 7] is reported as 16.8 ± 0.78 µM, the EC50 [2, 7] is reported as 17.8 ± 2.79 µM and the CC50 [3] is reported as 137 ± 22.5 µM.

In the case of `COc1ccc(N(C)C(=O)[C@H](Cc2cc(F)cc(F)c2)NC(=O)Cn2ccc(N)cc2=O)cc1` [FTC-2, (S)-2-(2-(4-amino-2-oxopyridin-1(2H)-yl)acetamido)-3-(3,5-difluorophenyl)-N-(4-methoxyphenyl)-N-methylpropanamide], the EC50 [1, 7] is reported as 5.36 ± 0.98 µM, the EC50 [2, 7] is reported as 15.6 ± 1.06 µM and the CC50 [3] is reported as > 266 µM. It also gave a solubility [5, 8] of 367 ± 58.4 µg/mL (≈ 779 µM), a solubility [5, 9] of 261 ± 130 µg/mL (≈ 555 µM) and a solubility [5, 10] of 437 ± 51.9 µg/mL (≈ 928 µM). The “water solubility compared with PF74” value [5] was “improved by a factor of hundreds”.

With `COc1ccc(N(C)C(=O)[C@H](Cc2ccccc2)NC(=O)Cn2ccc(NC(=O)c3ccc(C)cc3)cc2=O)cc1` [TD-1g, (S)-N-(1-(2-((1-((4-methoxyphenyl)(methyl)amino)-1-oxo-3-phenylpropan-2-yl)amino)-2-oxoethyl)-2-oxo-1,2-dihydropyridin-4-yl)-4-methylbenzamide] the EC50 [1, 7] was 25.6 ± 7.51 µM, the EC50 [2, 7] was 20.5 ± 8.49 µM and the CC50 [3] was 58.3 ± 4.85 µM.

With `COc1ccc(N(C)C(=O)[C@H](Cc2ccccc2)NC(=O)Cn2ccc(NC(=O)c3ccc(F)cc3)cc2=O)cc1` [TD-1b, (S)-4-fluoro-N-(1-(2-((1-((4-methoxyphenyl)(methyl)amino)-1-oxo-3-phenylpropan-2-yl)amino)-2-oxoethyl)-2-oxo-1,2-dihydropyridin-4-yl)benzamide] the EC50 [1, 7] was > 34.8 µM, the EC50 [2, 7] was 16.2 ± 17.2 µM and the CC50 [3] was 34.8 ± 5.75 µM.

With `COc1ccc(N(C)C(=O)[C@H](Cc2ccccc2)NC(=O)Cn2ccc(NC(=O)c3ccc(Br)cc3)cc2=O)cc1` [TD-1f, (S)-4-bromo-N-(1-(2-((1-((4-methoxyphenyl)(methyl)amino)-1-oxo-3-phenylpropan-2-yl)amino)-2-oxoethyl)-2-oxo-1,2-dihydropyridin-4-yl)benzamide] the EC50 [1, 7] was > 23.5 µM, the EC50 [2, 7] was > 23.5 µM and the CC50 [3] was 23.5 ± 2.79 µM.
